Where “and” joins values, the source holds several entries; their conditions need not be identical. Identical values can stand only once.
Assays:
Acanthocheilonema viteae = test: Antifilarial dual infection screen in jirds: adult A. viteae burden and microfilaremia; type: in vivo, in Mongolian jirds
Excerpt: (§1) Dual infections of the filarial worms Brugia pahangi and Acanthocheilonema viteae in jirds are used routinely for antifilarial screening [McCall, J. W., McTier, T. L., and Rowan, S. J., "In vivo models for evaluating potential antifilarial agents", Onchocerciasis/Filariasis (Proceedings of a Symposium sponsored by the World Health Organization), Kalamazoo, Mich., Apr. 8-10, 23-24 (1986)].
For this dual infection screen, male Mongolian jirds weighing 50-60 g are infected SC with 10 (5 male and 5 female) adult A. viteae, transplanted under sodium pentobarbital anesthesia (48 mg/kg) from donor hamsters infected SC 8 weeks earlier. Two weeks later, 20 (10 male and 10 female) adult B. pahangi, taken from donor jirds infected IP 8 weeks earlier, are transplanted into the peritoneal cavity of each jird under sodium pentobarbital anesthesia. After an additional week, when the jirds have acceptable levels of microfilaremia, they are randomly allocated to treatment groups of 3 animals each and a nontreated group of 4-6 animals. Microfilaremia is determined on days 0 (just prior to the first dose), 4 and 56 post-treatment. Unless indicated otherwise, compounds are suspended in hydroxyethylcellulose (0.5%) - Tween 80 (0.1%) and administered SC at 100 mg/kg/day for 5 consecutive days. All jirds are killed on day 56 post-treatment to determine the effects of drugs on adults of A. viteae and B. pahangi. Live worms are identified as to species, noted as to sex, and counted. The number of dead and/or encapsulated worms is also recorded. A reduction of ≥80% in microfilaremia or ≥50% in adult worm burden (either species) compared with pre-treatment microfilaremia or non-treated control worm burden, respectively, is considered to be significant. For secondary testing with this dual infection screen, groups of 7 animals each are used. For oral dosing, drugs are dissolved or suspended in hydroxyethylcellulose - Tween 80 and administered by gavage.

B. pahangi and A. viteae = test: Antifilarial activity in jirds, dual infection, summary in words; type: in vivo; conditions: both oral and parenteral routes
Excerpt: as §1
For this dual infection screen, male Mongolian jirds weighing 50-60 g are infected SC with 10 (5 male and 5 female) adult A. viteae, transplanted under sodium pentobarbital anesthesia (48 mg/kg) from donor hamsters infected SC 8 weeks earlier. Two weeks later, 20 (10 male and 10 female) adult B. pahangi, taken from donor jirds infected IP 8 weeks earlier, are transplanted into the peritoneal cavity of each jird under sodium pentobarbital anesthesia. After an additional week, when the jirds have acceptable levels of microfilaremia, they are randomly allocated to treatment groups of 3 animals each and a nontreated group of 4-6 animals. Microfilaremia is determined on days 0 (just prior to the first dose), 4 and 56 post-treatment. […] Live worms are identified as to species, noted as to sex, and counted. The number of dead and/or encapsulated worms is also recorded. […]

physchem = conditions: water

## COC(=O)Nc1nc2cc(C(N)c3ccc(F)cc3)ccc2[nH]1.Cl.Cl (racemic) [Example 2, Methyl (±)-[5-[Amino(4Fluorophenyl)Methyl]-1H-Benzimidazol-2-yl]Carbamate Dihy drochloride Salt]
Acanthocheilonema viteae; 1.56 mg/kg/day × 5 days, SC, day 56
  % Macrofilarial reduction, A. viteae: 48%
Acanthocheilonema viteae; 3.13 mg/kg/day × 5 days, SC
  % Microfilarial reduction, A. viteae, Day 4: 88%
  % Microfilarial reduction, A. viteae, Day 56: 100%
Acanthocheilonema viteae; 3.13 mg/kg/day × 5 days, SC, day 56, 3.13 mg/kg/day
  % Macrofilarial reduction, A. viteae: 74% and 69%
Acanthocheilonema viteae; 6.25 mg/kg/day × 5 days, SC
  % Microfilarial reduction, A. viteae, Day 4: 83%
  % Microfilarial reduction, A. viteae, Day 56: 100%
Acanthocheilonema viteae; 6.25 mg/kg/day × 5 days, SC, day 56
  % Macrofilarial reduction, A. viteae: 100%
Acanthocheilonema viteae; 12.5 mg/kg/day × 1 day, SC, day 56
  % Macrofilarial reduction, A. viteae: 83%
Acanthocheilonema viteae; 12.5 mg/kg/day × 5 days, SC
  % Microfilarial reduction, A. viteae, Day 4: 80%
  % Microfilarial reduction, A. viteae, Day 56: 100%
Acanthocheilonema viteae; 12.5 mg/kg/day × 5 days, SC, day 56
  % Macrofilarial reduction, A. viteae: 100%
Acanthocheilonema viteae; 25 mg/kg/day × 1 day, SC, day 56
  % Macrofilarial reduction, A. viteae: 96%
Acanthocheilonema viteae; 25 mg/kg/day × 5 days, SC, day 56
  % Macrofilarial reduction, A. viteae: 100%
Acanthocheilonema viteae; 75 mg/kg/day × 5 days, oral, day 56
  % Macrofilarial reduction, A. viteae: 83%
Acanthocheilonema viteae; 100 mg/kg/day × 5 days, oral
  % Microfilarial reduction, A. viteae, Day 4: 50%
  % Microfilarial reduction, A. viteae, Day 56: 75%
Acanthocheilonema viteae; 100 mg/kg/day × 5 days, oral, day 56
  % Macrofilarial reduction, A. viteae: 80%
B. pahangi and A. viteae
  antifilarial activity in jirds: outstanding antifilarial activity
physchem
  solubility: > 50 mg/mL

Source: patent publication US5278181A, “Soluble alkyl[5-[amino (phenyl)methyl]-1H-benzimidazol-2-yl] carbamate anthelmintics” (priority 1992, dated 1994)
